Measured values taken from patent publication US4906755A, “Esters of hexahydro-8-hydroxy-2,6-methano-2H-quinolizin-3-(4H)-one and related compounds” (Merrell Dow Pharmaceuticals Inc., priority 1989, dated 1990).
Counter-ions that a name gives are not always drawn.

Legend:
[1] = animal experimental model (Miner et al.; Costall et al. 1986); cited from earlier work
[2] = double-blind clinical trial (Loisy et al. 1985); cited from earlier work
5-HT M-receptor = details: 5-HT receptor antagonism; literature values (Fozard et al.); cited from earlier work
[3] = test system: Von Bezold-Jarisch Reflex induced by 5-HT; test: Von Bezold-Jarisch Reflex induced by 5-HT injected intravenously into the rat; assay type: in vivo
Excerpt: The activity of these compounds against 5-HT can be assessed in vivo by measurement of the effect of the compound on the Von Bezold-Jarisch Reflex induced by 5-HT injected intravenously into the rat (see Paintal A. S., Physiol. Rev., 53, 159-227 […]; J. R. Fozard, Naunyn-Schmiedeberg's Arch. Pharmacol., 326, (1984) 36-44). The transient cardiac slowing arises from an increased afferent vagus activity arising from stimulation by 5-HT of sensory afferent fibers in and around the heart.

[4] = slow intravenous injection, 10 mg; cited from earlier work
[5] = doses of 0.01-0.1 mg/kg given intravenously
[6] = doses of 0.25-1 mg/kg given orally

Structure (SMILES)	prevention of nausea and vomiting induced by cancer chemotherapeutic agents [1]	pA2 (5-HT M-receptor)	further results
CN1[C@@H]2CC[C@H]1C[C@@H](OC(=O)c1cc(Cl)cc(Cl)c1)C2 [3,5-dichlorobenzoyltropine]	highly effective		treatment of the acute migraine attack [2]: proved an effective treatment
CN1[C@@H]2CC[C@H]1C[C@@H](OC(=O)c1c[nH]c3ccccc13)C2 [(3α-tropanyl)-lH-indole-3-carboxylic acid ester]	highly effective		
CN1[C@@H]2CC[C@H]1C[C@@H](OC(=O)c1ccccc1)C2 [benzoyltropine]		7.2	
Cc1cc(C)cc(C(=O)O[C@@H]2C[C@@H]3C[C@@H]4C[C@H](C2)N3CC4=O)c1 [endo-8-(3,5-dimethylbenzoyloxy)hexahydro-2,6-methano-2H-quinolizin3(4H)-one]			suppression of the Von Bezold-Jarisch Reflex response [3, 5]: suppressed the response dose-dependently; suppression of the Von Bezold-Jarisch Reflex response [3, 6]: suppressed the response dose-dependently
O=C(O[C@@H]1C[C@@H]2C[C@@H]3C[C@H](C1)N2CC3=O)c1c[nH]c2ccccc12 [endo-hexahydro-8-(3-indolylcarbonyloxy)-2,6-methano-2H-quinolizin-3(4H)onehydrochloride]			suppression of the Von Bezold-Jarisch Reflex response [3, 5]: suppressed the response dose-dependently; suppression of the Von Bezold-Jarisch Reflex response [3, 6]: suppressed the response dose-dependently
CCN(CC)CCNC(=O)c1cc(Cl)c(N)cc1OC [metoclopramide]	highly effective	7.2	relief of an acute migraine attack [4]: immediate relief
COC(=O)[C@H]1[C@@H](OC(=O)c2ccccc2)C[C@@H]2CC[C@H]1N2 [nor (-) cocaine]		7.7	
CN1[C@@H]2CC[C@H]1C[C@H](OC(=O)c1ccccc1)C2 [pseudotropyl benzoate]		7.0	
